Values joined by “and” are separate entries in the source; they are usually repeats but may differ in a detail not shown here. Equal values may be shown once. Inconclusive results and toxic doses are left out.
System: P388 leukemia ip, CD2F1 mice, survival T/C
Assay: NCI In Vivo Anticancer Drug Screen. Data for tumor model P388 Leukemia (intraperitoneal) in CD2F1 (CDF1) mice
Details: endpoint: median survival time, higher = longer survival
Summary of the method: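 Mice carrying the transplanted tumor received test compound or vehicle. Survival was recorded in each group, and the value is the treated-group measurement divided by that of the vehicle-treated control group.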

[1] = dose: 60.0 mg/kg/injection, schedule: Q01DX005 (ip), vehicle: saline with Tween-80
[2] = dose: 120.0 mg/kg/injection, schedule: Q01DX005 (ip), vehicle: saline with Tween-80
[3] = dose: 240.0 mg/kg/injection, schedule: Q01DX005 (ip), vehicle: saline with Tween-80
[4] = dose: 50.0 mg/kg/injection, schedule: Q04DX003 (ip), vehicle: saline with Tween-80
[5] = dose: 50.0 mg/kg/injection, schedule: Q01DX005 (ip), vehicle: saline with Tween-80
[6] = dose: 100.0 mg/kg/injection, schedule: Q01DX005 (ip), vehicle: saline with Tween-80
[7] = dose: 200.0 mg/kg/injection, schedule: Q01DX005 (ip), vehicle: saline with Tween-80
[8] = dose: 50.0 mg/kg/injection, schedule: Q01DX009 (ip), vehicle: saline with Tween-80
[9] = dose: 100.0 mg/kg/injection, schedule: Q01DX009 (ip), vehicle: saline with Tween-80
[10] = dose: 100.0 mg/kg/injection, schedule: Q04DX002 (ip), vehicle: saline with Tween-80
[11] = dose: 200.0 mg/kg/injection, schedule: Q04DX002 (ip), vehicle: saline with Tween-80
[12] = dose: 50.0 mg/kg/injection, schedule: Q01DX009 (ip), vehicle: saline
[13] = dose: 100.0 mg/kg/injection, schedule: Q01DX009 (ip), vehicle: saline
[14] = dose: 200.0 mg/kg/injection, schedule: Q01DX009 (ip), vehicle: saline
[15] = dose: 12.5 mg/kg/injection, schedule: Q01DX009 (ip), vehicle: Klucel (hydroxypropylcellulose) (HPC)
[16] = dose: 50.0 mg/kg/injection, schedule: Q01DX005 (ip), vehicle: Klucel (hydroxypropylcellulose) (HPC)
[17] = dose: 100.0 mg/kg/injection, schedule: Q01DX005 (ip), vehicle: Klucel (hydroxypropylcellulose) (HPC)
[18] = dose: 200.0 mg/kg/injection, schedule: Q01DX005 (ip), vehicle: Klucel (hydroxypropylcellulose) (HPC)

`O=C1c2c(O)ccc(Cl)c2C(=O)C2CC=CCC12` (stereo unspecified) was tested, and the T/C (dose: 50.0 mg/kg/injection, schedule: Q04DX003 (ip), vehicle: DMSO) was 94 % of control, the T/C (dose: 100.0 mg/kg/injection, schedule: Q04DX003 (ip), vehicle: DMSO) was 88 % of control and the T/C (dose: 200.0 mg/kg/injection, schedule: Q04DX003 (ip), vehicle: DMSO) was 87 % of control.
With `Cc1ccc(NC(=O)CCCC(=O)C(C#N)c2c(Cl)cccc2Cl)cc1C` (stereo unspecified) the T/C [1] was 114 % of control, the T/C [2] was 108 % of control and the T/C [3] was 103 % of control.
In the case of `COC1=C(OC)C(=O)C2=C(OCO2)C1=O`, the T/C [1] is reported as 104 % of control, the T/C [2] is reported as 100 % of control and the T/C [3] is reported as 107 % of control.
In the case of `[Se]=P(c1ccccc1)(N1CC1)N1CC1`, the T/C (dose: 25.0 mg/kg/injection, schedule: Q04DX003 (ip), vehicle: saline with Tween-80) is reported as 108 % of control and the T/C [4] is reported as 109 % of control.
With `Cc1ccc(S(=O)(=O)OCCOCCOc2ccc3ccccc3c2-c2c(OCCOS(=O)(=O)c3ccc(C)cc3)ccc3ccccc23)cc1` the T/C (dose: 100.0 mg/kg/injection, schedule: Q01DX001 (ip), vehicle: saline with Tween-80) was 89 % of control and the T/C (dose: 200.0 mg/kg/injection, schedule: Q01DX001 (ip), vehicle: saline with Tween-80) was 100 % of control.
`COc1ccc(S(=O)(=O)N/N=C\c2cc([N+](=O)[O-])ccc2O)cc1OC` was tested, and the T/C [5] was 109 % of control, the T/C [6] was 109 % of control and the T/C [7] was 100 % of control.
With `C=C(CC(O)(C(F)(F)F)C(F)(F)F)CC(O)(C(F)(F)F)C(F)(F)F` the T/C (dose: 3.13 mg/kg/injection, schedule: Q01DX005 (ip), vehicle: saline with Tween-80) was 102 % of control, the T/C (dose: 6.25 mg/kg/injection, schedule: Q01DX005 (ip), vehicle: saline with Tween-80) was 104 % of control and the T/C (dose: 12.5 mg/kg/injection, schedule: Q01DX001 (ip), vehicle: saline with Tween-80) was 99 % of control. The T/C (dose: 12.5 mg/kg/injection, schedule: Q01DX005 (ip), vehicle: saline with Tween-80) was 107 % of control and the T/C (dose: 25.0 mg/kg/injection, schedule: Q01DX001 (ip), vehicle: saline with Tween-80) was 99 % of control.
In the case of `CC1(C)OC(=O)ON(C(c2ccccc2)c2ccccc2)C1=O`, the T/C [1] is reported as 101 % of control and the T/C [2] is reported as 108 % of control.
With `O=C(O)c1ccc(O)c(C(=O)O)c1` the T/C [8] was 94 % of control and the T/C [9] was 94 % of control.
In the case of `CC1(Br)CN(C(=S)Nc2ccccc2)C1=O` (stereo unspecified), the T/C [5] is reported as 108 % of control, the T/C [6] is reported as 105 % of control and the T/C [7] is reported as 104 % of control.
For `CCc1nc(N)nc(N)c1-c1ccc2c(c1)nnn2C1CCCCC1`, the T/C [5] was 100 % of control, the T/C [6] was 100 % of control and the T/C [7] was 87 % of control.
For `CN1C(=O)N(C)C(=O)C(Nc2ccc([N+](=O)[O-])cc2)(SCCO)C1=O`, the T/C [5] was 100 % of control, the T/C [6] was 104 % of control and the T/C [7] was 104 % of control.
For `CSC(=S)n1nc(-c2ccccc2)c(N=Nc2cccc(Cl)c2)c1-c1ccccc1`, the T/C [10] was 107 % of control, the T/C [11] was 104 % of control and the T/C (dose: 400.0 mg/kg/injection, schedule: Q04DX002 (ip), vehicle: saline with Tween-80) was 119 % of control.
With `C#Cc1cccc(N=Cc2cc([N+](=O)[O-])cc(Br)c2O)c1` the T/C [5] was 100 % of control, the T/C [6] was 105 % of control and the T/C [7] was 105 % of control.
For `CC/C(=N/NS(=O)(=O)c1ccc(C)cc1)c1ccc(C(C)(C)C)cc1`, the T/C [12] was 99 % of control and 96 % of control, the T/C [13] was 102 % of control and the T/C [14] was 102 % of control and 87 % of control.
With `CNC(=O)Oc1cccc(N=CN(C)C)c1` the T/C (dose: 0.93 mg/kg/injection, schedule: Q01DX005 (ip), vehicle: saline) was 97 % of control, the T/C (dose: 1.87 mg/kg/injection, schedule: Q01DX005 (ip), vehicle: saline) was 101 % of control and the T/C (dose: 3.75 mg/kg/injection, schedule: Q01DX005 (ip), vehicle: saline) was 95 % of control.
For `O=C(N/N=C\c1ccc(O)cc1)C(=O)N/N=C\c1ccc(O)cc1`, the T/C [12] was 87 % of control, the T/C [13] was 92 % of control and the T/C [14] was 96 % of control.
With `C=C1C(=O)O[C@H]2C[C@@H]1C(=O)C/C(C)=C/CC/C(C)=C/CC[C@@]2(C)OCSC` the T/C (dose: 8.0 mg/kg/injection, schedule: Q01DX009 (ip), vehicle: Klucel (hydroxypropylcellulose) (HPC)) was 116 % of control, the T/C (dose: 16.0 mg/kg/injection, schedule: Q01DX009 (ip), vehicle: Klucel (hydroxypropylcellulose) (HPC)) was 103 % of control and the T/C (dose: 32.0 mg/kg/injection, schedule: Q01DX009 (ip), vehicle: Klucel (hydroxypropylcellulose) (HPC)) was 111 % of control. The T/C (dose: 64.0 mg/kg/injection, schedule: Q01DX009 (ip), vehicle: Klucel (hydroxypropylcellulose) (HPC)) was 92 % of control.
In the case of `Cc1[nH]c2ccc(N(C)C)cc2c(=O)c1Cc1c(C)[nH]c2ccc(N(C)C)cc2c1=O`, the T/C [1] is reported as 92 % of control and the T/C [2] is reported as 89 % of control.
With `N#CC1(N2CCCCC2)CCCCC1` the T/C (dose: 3.13 mg/kg/injection, schedule: Q01DX009 (ip), vehicle: Klucel (hydroxypropylcellulose) (HPC)) was 106 % of control, the T/C (dose: 6.25 mg/kg/injection, schedule: Q01DX009 (ip), vehicle: Klucel (hydroxypropylcellulose) (HPC)) was 103 % of control and the T/C [15] was 93 % of control.
For `COC(=O)C12CCc3cc(OC)ccc3C1=CC(=O)C2` (stereo unspecified), the T/C [4] was 101 % of control, the T/C (dose: 100.0 mg/kg/injection, schedule: Q04DX003 (ip), vehicle: saline with Tween-80) was 105 % of control and the T/C (dose: 200.0 mg/kg/injection, schedule: Q04DX003 (ip), vehicle: saline with Tween-80) was 100 % of control. For the same molecule, the T/C (dose: 400.0 mg/kg/injection, schedule: Q04DX003 (ip), vehicle: saline with Tween-80) was 100 % of control.
With `O=C(O)c1nc2cn1/C=C\C=NCC1=CN3C=CC=NC3(C(=O)O)N1C2` (stereo unspecified) the T/C (dose: 25.0 mg/kg/injection, schedule: Q01DX009 (ip), vehicle: saline with Tween-80) was 101 % of control, the T/C [8] was 109 % of control and the T/C [9] was 95 % of control.
With `CC(=O)Nc1ccccc1NOC(=O)c1ccccc1NC(C)=O` the T/C [16] was 91 % of control, the T/C [17] was 87 % of control and the T/C [18] was 91 % of control.
For `O=C(/C=C/c1ccccc1)[c-]1[c-][c-][c-][c-]1.[Fe].[c-]1[c-][c-][cH-][c-]1`, the T/C [16] was 96 % of control, the T/C [17] was 109 % of control and the T/C [18] was 100 % of control.
In the case of `Fc1ccc(CSC(=S)Nc2cccc(F)c2)cc1`, the T/C (dose: 50.0 mg/kg/injection, schedule: Q01DX009 (ip), vehicle: suspension in saline) is reported as 90 % of control, the T/C (dose: 100.0 mg/kg/injection, schedule: Q01DX009 (ip), vehicle: suspension in saline) is reported as 103 % of control and the T/C (dose: 200.0 mg/kg/injection, schedule: Q01DX009 (ip), vehicle: suspension in saline) is reported as 107 % of control.
With `O=C1c2ccccc2CC2CCCCC12` (stereo unspecified) the T/C [8] was 103 % of control, the T/C [9] was 102 % of control and the T/C (dose: 200.0 mg/kg/injection, schedule: Q01DX009 (ip), vehicle: saline with Tween-80) was 108 % of control.
`CC1C(=O)C23CC1CCC2C12COC(=O)C1C(C)(C)C(O)CC2OC3=O` (stereo unspecified) was tested, and the T/C (dose: 50.0 mg/kg/injection, schedule: Q04DX002 (ip), vehicle: saline with Tween-80) was 113 % of control, the T/C [10] was 93 % of control and the T/C [11] was 112 % of control.
With `c1cnc2nsnc2c1` the T/C [15] was 100 % of control, the T/C (dose: 25.0 mg/kg/injection, schedule: Q01DX009 (ip), vehicle: Klucel (hydroxypropylcellulose) (HPC)) was 97 % of control and the T/C (dose: 50.0 mg/kg/injection, schedule: Q01DX009 (ip), vehicle: Klucel (hydroxypropylcellulose) (HPC)) was 100 % of control and 106 % of control.
For `COC(=O)CC(c1ccc(OC)cc1)c1cc2c(cc1OC)OCO2` (stereo unspecified), the T/C (dose: 50.0 mg/kg/injection, schedule: Q01DX005 (ip), vehicle: distilled water + Tween-80) was 97 % of control, the T/C (dose: 100.0 mg/kg/injection, schedule: Q01DX005 (ip), vehicle: distilled water + Tween-80) was 97 % of control and the T/C (dose: 200.0 mg/kg/injection, schedule: Q01DX005 (ip), vehicle: distilled water + Tween-80) was 97 % of control.

Reference: PubChem BioAssay AID330 (DTP/NCI, 2004)
